Results reported in patent US20080025966A1, “Methods And Compositions For The Treatment Of Gastrointestinal disorders” (priority 2004, published 2008).
No end group written: not given here.

Assays:
chymotrypsin [1] = target: T1, chymotrypsin (Bos taurus, UniProt P00766); experiment: Guanylin degradation assay (chymotrypsin digestion) read out in the T84 cGMP assay; type: biochemical, bovine; details: T84 cells, FIG. 1
T1 construct: purchased Sigma C6423
Protocol: Since guanylin is susceptible to digestion by chymotrypsin, chymotrypsin activity can be assayed based on guanylin cleavage. […] From this stock, six (6) 500 μl aliquots were prepared in 2 ml Eppendorf tubes and labeled “Control”, “T0”, “T15”, “T30”, “T60”, and “T180”, with “T_” representing timepoints, in minutes. 5 μl of a 10 mM chymostatin (Sigma, C7268) stock (5 mg of chymostatin resuspended in 824 μl of DMSO) was added to the “Control” samples and all samples were incubated for 5 minutes at 30° C. Chymostatin inhibits chymotrypsin activity and this sample served as a negative control. Next, 20 μl of a chymotrypsin (Sigma, C6423) enzyme solution (0.01 mg/ml bovine chymotrypsin enzyme in 1 mM HCl, 2 mM Calcium Chloride) were added to the samples and mixed by inversion. Samples are incubated at 30° C. […] Determination of sensitivity to digestion by chymotrypsin was determined by LCMS analysis and by in vitro activity in the T84 cGMP assays described below.
The ability of guanylin to activate the intestinal GC-C receptor was assessed in an assay employing the T84 human colon carcinoma cell line (American Type Culture Collection (Bethesda, Md.). For the assays cells were grown to confluency in 24-well culture plates with a 1:1 mixture of Ham's F12 medium and Dulbecco's modified Eagle's medium (DMEM), supplemented with 5% fetal calf serum and were used at between passages 54 and 60. […]

human HT-29/B6 cells = details: cited from earlier work
[2] = system: guanylin-induced intestinal fluid secretion; details: suckling mouse model; chymostatin given with guanylin; cited from earlier work
chymotrypsin [3] = details: cited from earlier work

## guanylin: intestinal peptide of 15 amino acids, agonist of the guanylate cyclase (GC-C) receptor; Sigma G-116 (PGTCEICAYAACTGC; ends and bridges not checked; cysteine pairing not given here; UniProt Q02747 101-115, looked up)
Chymotrypsin [1]; guanylin digested with chymotrypsin at 30° C., timepoints 0-180 min, no chymostatin
  guanylin stimulated cGMP activity: decreases over time

## Cc1c(O)cccc1C(=O)N[C@@H](CSc1ccccc1)[C@H](O)CN1C[C@H]2CCCC[C@H]2C[C@H]1C(=O)NC(C)(C)C [nelfinavir, Nelfinavir]
Human HT-29/B6 cells
  effect on the epithelial barrier: impair the epithelial barrier

## CC(C)C[C@H](NC(=O)[C@@H](NC(=O)N[C@@H](Cc1ccccc1)C(=O)O)C1CCNC(=N)N1)C(=O)N[C@H](C=O)Cc1ccccc1 (stereo partly shown) [chymostatin]
Chymotrypsin [1]; chymostatin added before chymotrypsin digestion of guanylin
  guanylin stimulated cGMP activity with chymotrypsin inhibitor present: retained
[2]
  guanylin-induced intestinal fluid secretion: required in order to observe guanylin-induced intestinal fluid secretion
Chymotrypsin [3]
  chymotrypsin-mediated inactivation of guanylin: can be prevented

## CC(C)(C)NC(=O)[C@@H]1C[C@@H]2CCCC[C@@H]2CN1C[C@@H](O)[C@H](Cc1ccccc1)NC(=O)[C@H](CC(N)=O)NC(=O)c1ccc2ccccc2n1 [saquinavir, Saquinavir]
Human HT-29/B6 cells
  effect on the epithelial barrier: impair the epithelial barrier

## CC(C)c1nc(CN(C)C(=O)N[C@H](C(=O)N[C@@H](Cc2ccccc2)C[C@H](O)[C@H](Cc2ccccc2)NC(=O)OCc2cncs2)C(C)C)cs1 [ritonavir]
Human HT-29/B6 cells
  effect on the epithelial barrier: impair the epithelial barrier
